Test systems include RXF-631 renal; M19-MEL melanoma; T-47D breast; DLD-1 colon; LXFL 529 NSCLC; HOP-18 NSCLC; MDA-N; HS 578T breast; MCF7 breast; SN12K1 renal; P388 leukemia.
What all share (experiment): NCI tumour cell line growth inhibition, 48 h

SMILES strings stand for the structures.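 Five concentrations, 48 hours, 96-well plates. GI50 is the concentration that inhibits growth by half. The concentration for full growth arrest is given as TGI.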

For the compound `c1ccc2c(NCCCCCCCCNc3c4ccccc4nc4ccccc34)c3ccccc3nc2c1`, the TGI in the assay on RXF-631 renal was 1.93 µM; with M19-MEL melanoma, 2.27 µM; in the assay on T-47D breast it was 3.2 µM; with DLD-1 colon, 2.4 µM; in the assay on LXFL 529 NSCLC it was 1.81 µM; in the assay with HOP-18 NSCLC it was 5.19 µM.
Regarding `CCCN(CCCCC(NC(C)=O)C(=O)NCc1ccccc1)C(=O)NC` (stereo unspecified), the TGI in the assay with RXF-631 renal, with M19-MEL melanoma, in the assay with DLD-1 colon and with LXFL 529 NSCLC was over 100 µM each time.
Take `c1cc2c(cnc3cscc32)s1`: the TGI in the assay with RXF-631 renal, in the assay on M19-MEL melanoma and in the assay on DLD-1 colon was over 100 µM each time.
As for `O=C1c2cccc3cc([N+](=O)[O-])cc(c23)C(=O)N1CCCN1CCN(CCCN2C(=O)c3cccc4cc([N+](=O)[O-])cc(c34)C2=O)CC1`, the TGI in the assay with RXF-631 renal is 3.21 µM; with M19-MEL melanoma, 2.56 µM; in the assay on DLD-1 colon, over 100 µM; in the assay with LXFL 529 NSCLC, over 100 µM; in the assay with HOP-18 NSCLC it was 7.81 µM.
With `CC(O)C(NC(=O)C(CS)NC(=O)C(CO)NC(=O)C(CCCCN)NC(=O)C(Cc1c[nH]c2ccccc12)NC(=O)C(Cc1ccc(O)cc1)NC(=O)C(CS)NC(=O)C(N)Cc1ccccc1)C(N)=O` (stereo unspecified), the TGI was 43.7 µM in the assay on RXF-631 renal; 70.9 µM with M19-MEL melanoma; over 25 µM in the assay with T-47D breast; 59.7 µM in the assay on DLD-1 colon; over 25 µM with MDA-N; over 25 µM with HS 578T breast. In addition, the results for the TGI in the assay with MCF7 breast and with HOP-18 NSCLC were over 25 µM and 46.6 µM, respectively.
For `CCCCCCCCCCCC(=O)C1=C(O)C(O)CCC1=O` (stereo unspecified), the TGI is 44.6 µM in the assay with M19-MEL melanoma, over 100 µM in the assay on DLD-1 colon, 53.9 µM with LXFL 529 NSCLC and 86.5 µM in the assay with HOP-18 NSCLC.
In the case of `[Cl][Sn]([c]1ccccc1)[c]1ccccc1`, the GI50 with RXF-631 renal was 3.86 µM; with DLD-1 colon, 3.65 µM; in the assay with LXFL 529 NSCLC, 1.4 µM; in the assay on HOP-18 NSCLC it was 3.27 µM. Further, the TGI with RXF-631 renal came to 27 µM; in the assay with DLD-1 colon it was 13.7 µM; in the assay with LXFL 529 NSCLC, 3.13 µM; with HOP-18 NSCLC it was 9.24 µM.
Take `Cn1nnnc1[N-]Cc1ccccc1.[Au+].c1ccc([PH+](c2ccccc2)c2ccccc2)cc1`: the GI50 in the assay with M19-MEL melanoma is 3.32 µM; in the assay on DLD-1 colon, 1.91 µM; in the assay with LXFL 529 NSCLC, 1.45 µM; in the assay on HOP-18 NSCLC, 2.25 µM. In addition, the TGI with M19-MEL melanoma came to 25.3 µM; in the assay with DLD-1 colon, 4.59 µM; in the assay with LXFL 529 NSCLC, 2.79 µM; in the assay with HOP-18 NSCLC, 4.98 µM.
Consider `CC(SC1=CC(=O)c2c(O)ccc(O)c2C1=O)C(=O)O` (stereo unspecified), for which the TGI in the assay on RXF-631 renal was over 100 µM; in the assay on DLD-1 colon, over 57.1 µM; in the assay on LXFL 529 NSCLC, over 51.6 µM; with HOP-18 NSCLC it was over 90.3 µM.
For the compound `CC1=C2N3C[C@@H](n4c(=O)n(C)c(=O)n43)C23CCC1n1c(=O)n(C)c(=O)n13`, the TGI in the assay with M19-MEL melanoma, with DLD-1 colon, in the assay on LXFL 529 NSCLC and in the assay with HOP-18 NSCLC was over 100 µM in each case.
Regarding `CCCCS(=N)(=O)CC[C@H](N)C(=O)O` (stereo partly specified), the TGI with SN12K1 renal is 3750 µM; in the assay on M19-MEL melanoma, over 5000 µM; in the assay on P388 leukemia, 5000 µM; in the assay with T-47D breast, over 10000 µM; in the assay on DLD-1 colon, over 5000 µM; in the assay with MDA-N, over 10000 µM. Moreover, the TGI with HS 578T breast is over 10000 µM; in the assay on MCF7 breast, over 10000 µM; in the assay with HOP-18 NSCLC, over 5000 µM. The GI50 with T-47D breast was over 10000 µM; in the assay on MDA-N, over 5000 µM; in the assay with HS 578T breast it was over 8500 µM; with MCF7 breast, over 10000 µM.
Turning to `CCCCCCCCCCCCC(SCCNC(=O)CCNC(=O)C(O)C(C)(C)COP(=O)(O)OP(=O)(O)OCC1OC(n2cnc3c(N)ncnc32)C(O)C1OP(=O)(O)O)C(=O)NCC(N)=O` (stereo unspecified), the TGI in the assay with RXF-631 renal, in the assay on M19-MEL melanoma, in the assay on DLD-1 colon, with LXFL 529 NSCLC and with HOP-18 NSCLC was over 100 µM each time.
`COc1ccc(/C=[N+](\[O-])[C@H](COCc2ccccc2)c2ccccc2)cc1`: the TGI in the assay with RXF-631 renal, in the assay with DLD-1 colon, in the assay on LXFL 529 NSCLC and with HOP-18 NSCLC was over 100 µM each time.
Take `c1cncc(C2c3[nH]c4ccccc4c3CCN2CCN2CCCCC2)c1` (stereo unspecified): the TGI in the assay on RXF-631 renal, with M19-MEL melanoma, with DLD-1 colon, in the assay with LXFL 529 NSCLC and in the assay with HOP-18 NSCLC was over 100 µM in each case.
Take `COc1ccc2c(C3(O)CCNCC3)c[nH]c2c1`: the TGI in the assay with RXF-631 renal, in the assay with M19-MEL melanoma, in the assay on DLD-1 colon, with LXFL 529 NSCLC and in the assay with HOP-18 NSCLC was over 100 µM each time.
On to `Cn1c2ccccc2n2c3nc4ccccc4nc3c(C#N)c12`, for which the TGI in the assay on M19-MEL melanoma, in the assay on T-47D breast, in the assay with DLD-1 colon, in the assay with MDA-N, in the assay with HS 578T breast and in the assay on MCF7 breast was over 100 µM throughout. Also, the TGI with LXFL 529 NSCLC and in the assay with HOP-18 NSCLC was over 100 µM each time.
For the compound `CCCc1ccc(N=Cc2cc(OC)c(OC)c(OC)c2)cc1`, the TGI with M19-MEL melanoma, in the assay on DLD-1 colon, with LXFL 529 NSCLC and in the assay on HOP-18 NSCLC was over 100 µM throughout.
For the compound `O=C(c1ccco1)N(C(=S)N1CCN(c2ccccc2)CC1)c1ccccc1`, the TGI in the assay with M19-MEL melanoma, with DLD-1 colon, in the assay with LXFL 529 NSCLC and in the assay with HOP-18 NSCLC was over 100 µM each time.
As to `CCOC(=O)C(=O)Nc1c(C)cccc1CC`, the TGI with RXF-631 renal, in the assay on M19-MEL melanoma, with DLD-1 colon, in the assay on LXFL 529 NSCLC and in the assay on HOP-18 NSCLC was over 100 µM each time.
`Cc1c(C(=O)CC(=O)C(=O)NC2C3CC4CC(C3)CC2C4)[n+](=O)c2ccccc2n1[O-]` (stereo unspecified): the TGI in the assay with RXF-631 renal, in the assay with M19-MEL melanoma, in the assay on LXFL 529 NSCLC and with HOP-18 NSCLC was over 100 µM in each case.
Turning to `CC1(C)OC2C(=O)OC(COCc3ccccc3)C2O1` (stereo unspecified), the TGI with RXF-631 renal, in the assay with M19-MEL melanoma, in the assay with DLD-1 colon, in the assay with LXFL 529 NSCLC and with HOP-18 NSCLC was over 100 µM throughout.
As for `COc1cccc2c1C1=CC(=O)CCC1C(C)(C)O2` (stereo unspecified), the TGI in the assay on RXF-631 renal, with M19-MEL melanoma, in the assay on DLD-1 colon, in the assay on LXFL 529 NSCLC and in the assay on HOP-18 NSCLC was over 100 µM throughout.
Turning to `Cc1cc2occ(C)c(=O)c2c2c1OC(C)(C)S2`, the TGI with M19-MEL melanoma, in the assay on DLD-1 colon, with LXFL 529 NSCLC and with HOP-18 NSCLC was over 100 µM throughout.
As for `CCOC(=O)c1c2ccc(/C=C/C(=O)OC)ccc-2c(C(=O)OCC)c1N`, the TGI in the assay on M19-MEL melanoma, with DLD-1 colon, in the assay on LXFL 529 NSCLC and in the assay with HOP-18 NSCLC was over 100 µM in each case.
On to `CC[C@@]1(OC(=O)CCC(=O)O)C(=O)OCc2c1cc1n(c2=O)Cc2cc3ccccc3nc2-1`, for which the TGI was 17.6 µM with RXF-631 renal; 1.69 µM in the assay on M19-MEL melanoma; 2.62 µM in the assay with T-47D breast; over 100 µM with DLD-1 colon; 5.51 µM in the assay with MDA-N; over 100 µM in the assay with HS 578T breast. Moreover, the TGI with LXFL 529 NSCLC was over 45.4 µM; in the assay with HOP-18 NSCLC it was over 100 µM.
For `O=C(O)c1[nH]c(C(=O)O)c(CC(F)(F)C(F)(F)C(F)(F)F)c1CC(F)(F)C(F)(F)C(F)(F)F`, the TGI in the assay on RXF-631 renal, in the assay on M19-MEL melanoma, in the assay with DLD-1 colon, in the assay on LXFL 529 NSCLC and with HOP-18 NSCLC was over 100 µM in each case.
Turning to `CCc1cccc(C)c1NC(=O)CC1Sc2ccccc2NC1=O` (stereo unspecified), the TGI in the assay on RXF-631 renal, in the assay with M19-MEL melanoma, with DLD-1 colon, with LXFL 529 NSCLC and in the assay on HOP-18 NSCLC was over 100 µM in each case.
In the case of `O=c1oc2c3ccc4ccccc4c3n(Cc3nc4ccccc4[nH]3)c2c2ccccc12`, the TGI with M19-MEL melanoma, in the assay with DLD-1 colon, with LXFL 529 NSCLC and with HOP-18 NSCLC was over 100 µM throughout.
Turning to `Nc1ccc2c(c1)[O][Sn]([c]1ccccc1)([c]1ccccc1)[O]C2=O`, the GI50 in the assay on RXF-631 renal is 15.9 µM; in the assay with M19-MEL melanoma, 11 µM; in the assay on DLD-1 colon, 4.24 µM; with MDA-N, 2.95 µM; in the assay on HS 578T breast it was 4.06 µM; in the assay on MCF7 breast, 3.95 µM. In addition, the GI50 in the assay on LXFL 529 NSCLC was 1.51 µM; with HOP-18 NSCLC it was 15.6 µM. Besides, the TGI in the assay on RXF-631 renal turned out to be 29.9 µM; in the assay on M19-MEL melanoma, 23.9 µM; in the assay on DLD-1 colon, 15.4 µM; in the assay with MDA-N, 9.26 µM; in the assay with HS 578T breast it was 22.2 µM; in the assay on MCF7 breast, 8.52 µM. Moreover, the TGI in the assay on LXFL 529 NSCLC was determined as 3.12 µM; in the assay on HOP-18 NSCLC it was 29 µM.
For `CC(=O)O/C(C)=C\C(=O)O/N=C(\N)c1ccc(C)cc1`, the TGI with RXF-631 renal was determined as 61.1 µM; with DLD-1 colon it was 50.9 µM; with LXFL 529 NSCLC, 59.9 µM; in the assay on HOP-18 NSCLC it was 98.6 µM.
